The source of these data is ChEMBL document CHEMBL1129225, “Synthesis of 11,13-bridged progestational steroids” (1997).

Each structure is given as a SMILES string. Activity calls are given as the source filed them. No cut-off for these calls is given here.

For one experiment, the system named is Oryctolagus cuniculus. The experiment in a line: In vivo activity using McPhail test after oral dose. Format: functional.
The target of experiment [1] is T1, Progesterone receptor (Homo sapiens) (UniProt P06401).
T1 sequence (whole entry): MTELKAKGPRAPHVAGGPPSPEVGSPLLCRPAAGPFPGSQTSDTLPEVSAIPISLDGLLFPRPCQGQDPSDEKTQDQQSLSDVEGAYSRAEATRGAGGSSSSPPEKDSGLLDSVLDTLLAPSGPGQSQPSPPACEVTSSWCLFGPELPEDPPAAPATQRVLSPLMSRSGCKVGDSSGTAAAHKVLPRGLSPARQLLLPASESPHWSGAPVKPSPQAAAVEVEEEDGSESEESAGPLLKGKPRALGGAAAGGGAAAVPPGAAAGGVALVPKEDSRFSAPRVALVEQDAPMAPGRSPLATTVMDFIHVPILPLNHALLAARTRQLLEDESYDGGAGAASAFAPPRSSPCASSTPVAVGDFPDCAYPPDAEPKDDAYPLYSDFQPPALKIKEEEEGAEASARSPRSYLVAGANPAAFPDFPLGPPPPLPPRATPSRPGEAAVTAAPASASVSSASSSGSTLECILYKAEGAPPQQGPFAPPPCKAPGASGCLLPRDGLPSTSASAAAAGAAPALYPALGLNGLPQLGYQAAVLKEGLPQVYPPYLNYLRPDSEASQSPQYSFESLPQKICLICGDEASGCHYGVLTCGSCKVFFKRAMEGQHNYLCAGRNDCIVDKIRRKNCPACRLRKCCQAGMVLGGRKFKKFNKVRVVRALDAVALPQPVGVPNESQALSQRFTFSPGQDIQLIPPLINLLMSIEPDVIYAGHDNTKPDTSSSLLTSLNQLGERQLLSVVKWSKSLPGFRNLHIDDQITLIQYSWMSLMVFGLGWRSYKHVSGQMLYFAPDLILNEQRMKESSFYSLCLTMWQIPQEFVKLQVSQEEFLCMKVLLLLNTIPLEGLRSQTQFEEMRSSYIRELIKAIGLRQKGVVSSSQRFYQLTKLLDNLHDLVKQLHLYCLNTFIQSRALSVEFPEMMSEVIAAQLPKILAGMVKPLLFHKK
The experiment is described as follows: Relative binding affinity to progesterone receptor of MCF-7 cytosol; No competitive binding.

Consider `C#C[C@]1(O)CC[C@H]2[C@@H]3CCC4=CC(=O)CC[C@@H]4[C@H]3CC[C@@]21C` [NORETHINDRONE], for which the ED2 in the experiment with Oryctolagus cuniculus is 0.5 mg/kg.

Turning to `C#C[C@]1(O)CCC2C3CCC4=CC(=O)CCC4C3[C@@H]3C[C@@]21CO3` (stereo partly specified), the ED2 in the experiment on Oryctolagus cuniculus was over 4 mg/kg. The “relative binding affinity (RBA)” value in experiment [1] was “inactive”.

Molecule `C#C[C@]1(O)CCC2C3CCC4=CC(=O)CCC4C3[C@@H](C)CC21C` (stereo partly specified) returned an ED2 with Oryctolagus cuniculus of 0.015 mg/kg.

For the molecule `C#C[C@]1(O)CCC2C3CCC4=CC(=O)CCC4C3[C@H]3CC[C@]21C3` (stereo partly specified), the ED2 in the experiment on Oryctolagus cuniculus was determined as 0.032 mg/kg.

On to `C#C[C@]1(O)CCC2C3CCC4=CC(=O)CCC4C3[C@H]3C=C[C@]21C3` (stereo partly specified), for which the ED2 in the experiment on Oryctolagus cuniculus is over 0.125 mg/kg.
